≈ marks a conversion by molar mass, not a printed value. Where two headings read alike, the source gives them in different places.

A short description of data set [1]: MTT cytotoxicity assay against HL 60 cells. The class given is cell-based. To be noted: human, HL-60 cells (human leukemia cells); HL 60 cell line; MTT assay; read-out: IC50 cytotoxicity. The procedure: The cytotoxicity of the active compounds was checked in an MTT assay against human HL 60 cells. […] Although, this corresponds to the MIC range that would be needed in treatment, the values are within the range observed for commonly used antimycotics such as amorolfine and posaconazole. All active compounds were evaluated for their biopharmaceutical behavior and drug‐likeness using the online program SwissADME [26] and should show oral bioavailability according to the Lipinski rules of five.
HL‐60 cells (human leukemia cells, DSM No. ACC3) were obtained from DSMZ (German Collection of Microorganisms and Cell Cultures, Braunschweig, Germany) and cultivated in RPMI 1640 medium with 10% fetal bovine serum (FBS), both from PAA Laboratories, Cölbe, Germany) without the addition of antibiotics at 37°C in a humidified atmosphere containing 5% CO2. The assay was performed according to lit.

In the next data set the test system is R. microsporus. The data set can be described thus: MIC90 growth inhibition of molds (EUCAST), R. microsporus. Type of data set: cell-based. To be noted: Rhizopus microsporus. As for the experimental part: (§1) Determination of MICs (minimal inhibitory concentration) against Candida species was carried out according to the European Committee of Antifungal Susceptibility Testing. Concentration of yeast cells was determined by photometer and adjusted to a turbidity of 0.5 according to McFarland standard. MIC90 was determined by microdilution plate reader (Sunrise Tecan) at 450 nm, after 24 h incubation at 37°C. MIC90 was defined as the minimal concentration of chemical causing 90% growth inhibition, respectively. Growth inhibition of molds was determined by eye and microscopically, following EUCAST guidelines. All substances were dissolved in DMSO and diluted in RPMI 1640 medium, containing 2% glucose. All assays were carried out twice.

The next data set concerns Candida isolates. The data set is described as follows: MIC90 against Candida isolates. Type of data set: cell-based. Particulars: span over the Candida isolates tested. The procedure: as §1
The subject of a further data set is A. fumigatus (R16). The data set is described as follows: MIC90 growth inhibition of molds (EUCAST), A. fumigatus (R16). Type of data set: cell-based. To be noted: Aspergillus fumigatus. The procedure:
as §1

A further data set has as its system A. fumigatus (R7). The data set is described as follows: MIC90 growth inhibition of molds (EUCAST), A. fumigatus (R7). Type of data set: cell-based. To be noted: Aspergillus fumigatus. The procedure:
as §1

A further data set deals with A. fumigatus (A65). The data set is described as follows: MIC90 growth inhibition of molds (EUCAST), A. fumigatus (A65). Type of data set: cell-based. To be noted: Aspergillus fumigatus, RPMI 1640, 2% glucose, read by eye and microscopically. As for the experimental part:
Determination of MICs (minimal inhibitory concentration) against Candida species was carried out according to the European Committee of Antifungal Susceptibility Testing. Concentration of yeast cells was determined by photometer and adjusted to a turbidity of 0.5 according to McFarland standard. […] Growth inhibition of molds was determined by eye and microscopically, following EUCAST guidelines. […] All assays were carried out twice.

For the next data set, the system named is C. glabrata. The data set can be described thus: MIC90 microdilution (EUCAST), C. glabrata. The class given is cell-based. Particulars: Nakaseomyces glabratus, 24 h. The procedure:
as §1

Another data set concerns molds. The data set can be described thus: Growth inhibition of molds. The class given is cell-based. Particulars: against the molds. The procedure: as §1
The test system of the next data set is Yarrowia lipolytica. The data set is described as follows: MIC100 microdilution assay against Yarrowia lipolytica. The class given is cell-based. The procedure:
In previous research we found a good correlation between MIC values against Yarrowia lipolytica and pathogenic Candida species.
Determination of MICs against Yarrowia lipolytica (DSMZ, Braunschweig, Germany) was carried out according to lit. Yarrowia lipolytica was cultivated in AC‐agar (Sigma Aldrich). Concentration of yeast cells was determined by photometer and adjusted to a turbidity of 0.5 according to McFarland standard at 600 nm. All substances were dissolved in DMSO or methanol.
Determination of MICs (minimal inhibitory concentration) against Yarrowia lipolytica was carried out according to Lit.^[13] Concentration of yeast cells was determined by photometer and adjusted to a turbitity of 0.5 according to McFarland Standard.
A general note: In broth dilution the organism is exposed to a series of concentrations in liquid medium.

Another data set relates to R. arrhizus (oryzae). The data set can be described thus: MIC90 growth inhibition of molds (EUCAST), R. arrhizus (oryzae). The class given is cell-based. To be noted: Rhizopus arrhizus. As for the experimental part:
as §1

The subject of the next data set is C. albicans. The data set can be described thus: MIC90 microdilution (EUCAST), C. albicans. The class given is cell-based. To be noted: Candida albicans, 24 h. As for the experimental part: as §1
The test system of the next data set is C. krusei. The data set can be described thus: MIC90 microdilution (EUCAST), C. krusei. The class given is cell-based. To be noted: Pichia kudriavzevii, 24 h. The procedure:
as §1

In the next data set the test system is Candida species. Particulars: reported values; cited from earlier work.
[2] abbreviates: 48 h, read-out: Biological Activity MIC Yarrowia lipolytica.
Where [3] appears, read: read-out: MIC100 (molar value in brackets).

By IC50 is commonly meant the midpoint of a concentration-inhibition curve. Usually MIC90 stands for an inhibitory concentration at the 90% level, which refers to growth in some studies and to a panel of isolates in others. A high value points to weaker potency. As for `CCCCCCCCCCCCN1CCC(N2CCC3CCCCC3C2)CC1` (racemic) [6i, (±)‐2‐(1‐Dodecylpiperidin‐4‐yl)‐decahydroisoquinoline], the IC50 in data set [1] worked out at 23 µg/mL (≈ 58.9 µM). Moreover, the MIC90 in the data set with R. microsporus was greater than 32 µg/mL; with Candida isolates it was 2 to 16 µg/mL (≈ 5.12 to 41 µM); with A. fumigatus (R16) it was 32 µg/mL (≈ 81.9 µM); in the data set with A. fumigatus (R7), 32 µg/mL (≈ 81.9 µM); against A. fumigatus (A65), 32 µg/mL (≈ 81.9 µM); in the data set with C. glabrata, 16 µg/mL (≈ 41 µM). The MIC90 against R. arrhizus (oryzae) was greater than 32 µg/mL. The “growth inhibition at concentrations (molds)” value in the data set on molds was in the range of 16 to 32 µg/mL. Moreover, the MIC in the data set with Yarrowia lipolytica (setting [2]) was found to be 1.6 µg/mL; in the data set with Yarrowia lipolytica (48 h, read-out: MIC100) it was 1.6 µg/mL; with Yarrowia lipolytica (setting [3]) it was 4.1 µM.
Take `CCCCCCCCCCCCN1CCC(N2CCc3cc(OC)c(OC)cc3C2)CC1` [6f, 2‐(1‐Dodecylpiperidin‐4‐yl)‐6,7‐dimethoxy‐1,2,3,4‐tetrahydroisoquinoline]: the IC50 in data set [1] turned out to be 6 µg/mL (≈ 13.5 µM). Also, the MIC90 was 4 µg/mL (≈ 8.99 µM) against C. albicans; greater than 32 µg/mL with R. microsporus; 2 to 16 µg/mL (≈ 4.5 to 36 µM) against Candida isolates; 2 µg/mL (≈ 4.5 µM) against C. krusei; greater than 32 µg/mL against A. fumigatus (R16); greater than 32 µg/mL against A. fumigatus (R7). In addition, the MIC90 with A. fumigatus (A65) and with R. arrhizus (oryzae) was greater than 32 µg/mL throughout. In addition, the MIC with Yarrowia lipolytica (setting [2]) is 3.1 µg/mL; with Yarrowia lipolytica (48 h, read-out: MIC100), 3.1 µg/mL; with Yarrowia lipolytica (setting [3]), 7 µM.
Take `CC(Cc1ccc(C(C)(C)C)cc1)CN1CCCCC1` (centres unmarked) [fenpropidin]: the “MIC values against Candida species” value in the data set with Candida species was 0.25 to 1 µg/mL.
In the case of `CC(Cc1ccc(C(C)(C)C)cc1)CN1C[C@@H](C)O[C@@H](C)C1` (some centres unmarked) [fenpropimorph], the “MIC values against Candida species” value in the data set with Candida species is 0.5 to 2 µg/mL.

The values above are taken from paper PMC12531613, “Synthesis and Biological Evaluation of Novel 2‐(Piperidin‐4‐yl)‐1,2,3,4‐tetrahydroisoquinoline and 2‐(Piperidin‐4‐yl)decahydroisoquinoline Antimycotics” (Archiv Der Pharmazie, 2025).
